According to patent US6964949B2, “Pharmaceutical compositions for promoting the growth of gram-positive bacilli and increasing the acidity in the vagina and the use thereof” (Shanghai Jiao Da Onlly Co., Ltd., priority 2000, dated 2005):

Legend:
[1] = test system: L. acidophilus, C. albicans, C. tropicalis; assay: Terconazole in Maltose Broth, Group 1 co-culture: turbidity and Gram-stained smear; type: cell-based; set-up: key to Turbidity, Group 1: ++: The cultural fluid was heavily turbid; +: The cultural fluid was turbid; +/−: The turbidity of the cultural fluid was not affirmative; key to Microbes (Gram-stained smear), Group 1: Lb: Lactobacilli; Candida; details: 18 hours, 37° C., candle jar
Experimental: (§1) • 1. Materials: • Maltose Broth: 10.0% maltose, 2.0% yeast extract, K2HPO4 0.5%, MgSO4 0.05%, MnSO40.1%, pH adjusted to 6.2, sterilized. • Anti-fungi drug: Terconazole • Clinically isolated Lactobacillus strains: Lactobacillus acidophilus, Lactobacillus crispatus, and Lactobacillus jensenii. Three lactobacillus suspensions were prepared separately from each of these three lactobacillus strains.
(§2) Clinically isolated Candida strains: Candida albicans and Candida tropicalis. Two Candidal suspensions were prepared separately from each of these two candida strains. • 2.
(§3) • There were six tubes in each group and each tube contained 2 ml Maltose Broth and different concentration of Terconazole, as shown in Table 1. • The turbidity values of three lactobacillus suspensions and two Candidal suspensions were tested by Turbidimeter and adjusted to 0.3. 50 ul of each prepared lactobacillus suspension and Candidal suspension were separately added into tubes according to Table 1. • All of these experimental tubes were put into candle jars as soon as the lactobacillus suspensions and candidal suspensions were added, and then incubated at 37° C. for 18 hours. • After 18 hours' incubation the turbidity of each tube was examined and Gram-stained smear of cultural fluid of corresponding tube was observed under microscopy to check microbes. Results

[2] = test system: L. crispatus, C. albicans, C. tropicalis; assay: Terconazole in Maltose Broth, Group 2 co-culture: turbidity and Gram-stained smear; type: cell-based; set-up: key to Turbidity, Group 2: ++: The cultural fluid was heavily turbid; +: The cultural fluid was turbid; +/−: The turbidity of the cultural fluid was not affirmative; key to Microbes (Gram-stained smear), Group 2: Lb: Lactobacilli; Candida; details: 18 hours, 37° C., candle jar
Experimental: as §1, §2, §3

[3] = test system: L. jensenii, C. albicans, C. tropicalis; assay: Terconazole in Maltose Broth, Group 3 co-culture: turbidity and Gram-stained smear; type: cell-based, Lactobacillus jensenii, Candida albicans, Candida tropicalis; set-up: key to Turbidity, Group 3: ++: The cultural fluid was heavily turbid; +: The cultural fluid was turbid; +/−: The turbidity of the cultural fluid was not affirmative; key to Microbes (Gram-stained smear), Group 3: Lb: Lactobacilli; Candida; details: 18 hours, 37° C., candle jar
Experimental: as §1, §2, §3

[4] = test system: C. albicans, C. tropicalis; assay: Terconazole in Maltose Broth, Group 4 (Candidal group): turbidity and Gram-stained smear; type: cell-based, Candida albicans, Candida tropicalis; set-up: key to Turbidity, Group 4: ++: The cultural fluid was heavily turbid; +: The cultural fluid was turbid; +/−: The turbidity of the cultural fluid was not affirmative; details: 18 hours; for Turbidity, Group 4: 37° C., candle jar
Experimental: as §1, §2, §3

[5] = test system: three Lactobacillus strains; assay: Terconazole in Maltose Broth: growth of the three Lactobacillus strains (Groups 1-3); type: cell-based; details: 400 ug/ml of Terconazole, 18 hours
Experimental: as §1, §2, §3

CC(C)N1CCN(c2ccc(OCC3COC(Cn4cncn4)(c4ccc(Cl)cc4Cl)O3)cc2)CC1 (stereo not shown) [Terconazole]
Microbes (Gram-stained smear), Group 1 ([1]; Terconazole 25 ug/ml): Lb
Turbidity, Group 1 ([1]; Terconazole 25 ug/ml): ++
Microbes (Gram-stained smear), Group 1 ([1]; Terconazole 50 ug/ml): Lb
Turbidity, Group 1 ([1]; Terconazole 50 ug/ml): ++
Microbes (Gram-stained smear), Group 1 ([1]; Terconazole 100 ug/ml): Lb
Turbidity, Group 1 ([1]; Terconazole 100 ug/ml): ++
Microbes (Gram-stained smear), Group 1 ([1]; Terconazole 200 ug/ml): Lb
Turbidity, Group 1 ([1]; Terconazole 200 ug/ml): ++
Microbes (Gram-stained smear), Group 1 ([1]; Terconazole 400 ug/ml): Lb
Turbidity, Group 1 ([1]; Terconazole 400 ug/ml): ++
Microbes (Gram-stained smear), Group 2 ([2]; Terconazole 25 ug/ml): Lb
Turbidity, Group 2 ([2]; Terconazole 25 ug/ml): ++
Microbes (Gram-stained smear), Group 2 ([2]; Terconazole 50 ug/ml): Lb
Turbidity, Group 2 ([2]; Terconazole 50 ug/ml): ++
Microbes (Gram-stained smear), Group 2 ([2]; Terconazole 100 ug/ml): Lb
Turbidity, Group 2 ([2]; Terconazole 100 ug/ml): ++
Microbes (Gram-stained smear), Group 2 ([2]; Terconazole 200 ug/ml): Lb
Turbidity, Group 2 ([2]; Terconazole 200 ug/ml): ++
Microbes (Gram-stained smear), Group 2 ([2]; Terconazole 400 ug/ml): Lb
Turbidity, Group 2 ([2]; Terconazole 400 ug/ml): ++
Microbes (Gram-stained smear), Group 3 ([3]; Terconazole 25 ug/ml): Lb
Turbidity, Group 3 ([3]; Terconazole 25 ug/ml): ++
Microbes (Gram-stained smear), Group 3 ([3]; Terconazole 50 ug/ml): Lb
Turbidity, Group 3 ([3]; Terconazole 50 ug/ml): ++
Microbes (Gram-stained smear), Group 3 ([3]; Terconazole 100 ug/ml): Lb
Turbidity, Group 3 ([3]; Terconazole 100 ug/ml): ++
Microbes (Gram-stained smear), Group 3 ([3]; Terconazole 200 ug/ml): Lb
Turbidity, Group 3 ([3]; Terconazole 200 ug/ml): ++
Microbes (Gram-stained smear), Group 3 ([3]; Terconazole 400 ug/ml): Lb
Turbidity, Group 3 ([3]; Terconazole 400 ug/ml): ++
growth of the two Candidal strains ([4]; 25 ug/ml or greater concentration of Terconazole): inhibited the growth
Turbidity, Group 4 ([4]; Terconazole 25 ug/ml): +/−
Turbidity, Group 4 ([4]; Terconazole 50 ug/ml): +/−
Turbidity, Group 4 ([4]; Terconazole 100 ug/ml): +/−
Turbidity, Group 4 ([4]; Terconazole 200 ug/ml): +/−
Turbidity, Group 4 ([4]; Terconazole 400 ug/ml): +/−
growth of three Lactobacillus strains [5]: didn't inhibit the growth
